Data from patent US4111955A, “N-Trihalomethanesulfenyl carbamoyloximino di-sulfur heterocyclic compounds” (priority 1976, dated 1978).

Key:
Format in all cases: in vivo
[1] = tested on: house flies (Musca domestica, L.); assay: Fly Bait Test; set-up: key to pesticidal activity rating, Housefly: A: excellent control; B: partial control; C: no control; conditions: 500 parts per million, 24 hours
Protocol: Four to 6 day old adult house flies (Musca domestica, L.), reared according to the specifications of the Chemical Specialities Manufacturing Association (Blue Book, McNair-Dorland Co., N.Y. 1954; pages 243-244, 261) under controlled conditions of 80°±5° F. and 50±5 percent relative humidity, were the test insects. The flies were immobilized by anesthetizing with carbon dioxide and twenty five immobilized individuals, males and females, were transferred to a cage consisting of a standard food strainer about 5 inches in diameter which was inverted over a wrapping-paper-covered surface. The test compounds were formulated by diluting the stock suspension with a 10 percent (by weight) sugar solution to give a suspension containing 500 parts of test compound per million parts of final formulation, by weight. Ten milliliters of the test formulation were added to a souffle cup containing a 1-inch square of an absorbent cotton pad. This bait cup was introduced and centered on the blotting paper under the food strainer prior to admitting the anesthetized flies. The caged flies were allowed to feed on the bait for 24 hours, at a temperature of 80°±5° F. and the relative humidity of 50±5 percent.
(§1) In these tests the pesticidal activity of the compounds against aphid, mite, Southern Armyworm, Bean Beetle and House fly was rated as follows:
(§2) The LD50 values shown in the above Table II were determined by testing the compositions over an appropriate concentration range obtained by serial dilution of the stock suspension with water. The percent kill was plotted on log-probit graph paper versus parts per million concentration, and the LD50 read from an eye-fitted line drawn through the resultant points.

[2] = tested on: two-spotted mite (Tetranychus urticae Koch); assay: Mite Foliage Spray Test; set-up: key to pesticidal activity rating, Mite: A: excellent control; B: partial control; C: no control; conditions: 500 parts per million, 6 days
Protocol: Adults and nymphal stages of the two-spotted mite (Tetranychus urticae Koch), reared on Tendergreen bean plants at 80±5 percent relative humidity, were the test organisms. Infested leaves from a stock culture were placed on the primary leaves of two bean plants 6 to 8 inches in height, growing in a 21/2 inch clay pot. 150-200 Mites, a sufficient number for testing, transferred from the excised leaves to the fresh plants in a period of 24 hours. Following the 24 hour transfer period, the excised leaves were removed from the infested plants. The test compounds were formulated by diluting the stock suspension with water to give a suspension containing 500 parts of test compound per million parts of final formulation. The potted plants (one pot per compound) were placed on a revolving turntable and sprayed with 100-110 milliliters of test compound formulation by use of a DeVilbiss spray gun set at 40 psig. air pressure. This application, which lasted 25 seconds, was sufficient to wet the plants to run-off. As a control, 100-110 milliliters of a water solution containing acetone and emulsifier in the same concentrations as the test compound formulation, but containing no test compound, were also sprayed on infested plants. The sprayed plants were held at 80±5 percent relative humidity for 6 days, after which a mortality count of motile forms was made. Microscopic examination for motile forms was made on the leaves of the test plants. Any individual which was capable of locomotion upon prodding was considered living.
as §1, §2

[3] = tested on: southern armyworm (Prodenia eridania, (Cram.)); assay: Southern Armyworm Leaf Spray Test; set-up: key to pesticidal activity rating, Armyworm: A: excellent control; B: partial control; C: no control; conditions: 500 parts per million, 3 days
Protocol: Larvae of the southern armyworm (Prodenia eridania, (Cram.)), reared on Tendergreen bean plants at a temperature of 80°±5° F. and a relative humidity of 50±5 percent, constituted the test insects.
The test compounds were formulated by diluting the stock suspension with water to give a suspension containing 500 parts of test compound per million parts of final formulation. Potted Tendergreen bean plants of standard height and age were placed on a revolving turntable and sprayed with 100-110 milliliters of test compound formulation by use of a DeVilbiss spray gun set at 10 psig air pressure. This application, which lasted 25 seconds, was sufficient to wet plants to run-off. As a control, 100-110 milliliters of a water-acetone-emulsifier solution containing no test compound were also sprayed on infested plants. When dry, the paired leaves were separated and each one was placed in a 9 centimeter Petri dish lined with moistened filter paper. Five randomly selected larvae were introduced into each dish and the dishes were closed. The closed dishes were labeled and held at 80°-85° F. for 3 days. Although the larvae could easily consume the whole leaf within 24 hours, no more food was added. Larvae which were unable to move the length of the body, even upon stimulation by prodding, were considered dead. Percent mortality was recorded for various concentration levels.
as §1, §2

[4] = tested on: bean aphid (Aphis fabae Scop.); assay: Bean Aphid Foliage Spray Test; set-up: key to pesticidal activity rating, Aphid: A: excellent control; B: partial control; C: no control; conditions: 500 parts per million, 24 hour
Protocol: Adults and nymphal stages of the bean aphid (Aphis fabae Scop.) reared on potted dwarf nasturtium plants at 65°-70° F. and 50-70 percent relative humidity, constituted the test insects. For testing purposes, the number of aphids per pot was standardized to 100-150 by trimming plants containing excess aphids.
The test compounds were formulated by diluting the stock suspension with water to give a suspension containing 500 parts of test compound per million parts of final formulation.
The potted plants (one pot per compound tested) infested with 100-150 aphids, were placed on a revolving turntable and sprayed with 100-110 milliliters of test compound formulation by use of a DeVilbiss spray gun set at 40 psig. air pressure. This application, which lasted 25 seconds, was sufficient to wet the plants to run-off. As a control, 100-110 milliliters of a water-acetone-emulsifier solution containing no test compound were also sprayed on infested plants. After spraying, the pots were placed on their sides on a sheet of white standard mimeograph paper which had been previously ruled to facilitate counting. Temperature and humidity in the test room during the 24 hour holding period were 65°-70° F. and 50-70 percent, respectively. Aphids which fell onto the paper and were unable to remain standing after being uprighted were considered dead. Aphids remaining on the plants were observed closely for movement and those which were unable to move the length of the body upon stimulation by prodding were considered dead. Percent mortality was recorded for various concentration levels.
as §1, §2

[5] = tested on: Mexican bean beetle (Epilachna varivestis, Muls.); assay: Mexican Bean Beetle Leaf Spray Test; set-up: key to pesticidal activity rating, Bean beetle: A: excellent control; B: partial control; C: no control; conditions: leaf spray, 500 parts per million, 3 days
Protocol: Fourth instar larvae of the Mexican bean beetle (Epilachna varivestis, Muls.), reared on Tendergreen bean plants at a temperature of 80°±5° F. and 50±5 percent relative humidity, were the test insects.
The test compounds were formulated by diluting the stock suspension with water to give a suspension containing 500 parts of test compound per million parts of final formulation. Potted Tendergreen bean plants of standard height and age were placed on a revolving turntable and sprayed with 100-110 milliliters of test compound formulation by use of a DeVilbiss spray gun set at 10 psig air pressure. This application, which lasted 25 seconds, was sufficient to wet plants to run-off. As a control, 100-110 milliliters of a water-acetone-emulsifier solution containing no test compound were also sprayed on infested plants. When dry, the paired leaves were separated and each was placed in a 9 centimeter Petri dish lined with moistened filter paper. Five randomly selected larvae were introduced into each dish, and the dishes were closed. The closed dishes were labeled and held at a temperature of 80°±5° F. for 3 days. Although the larvae could easily consume the leaf within 24 to 48 hours, no more food was added. Larvae which were unable to move the length of the body, even upon stimulation, were considered dead.
as §1, §2

[6] = Peroral toxicity to mammals (rat); conditions: in vivo, po; rat, peroral, Table I; read-out: Rat P.O. LD50
Protocol: Certain of these compositions were also evaluated to determine their peroral toxicity to mammals. The animal selected for this experiment was the rat. The test results obtained are expressed in terms of the number of milligrams of composition per kilogram of weight of the animal required to achieve a mortality rate of 50 percent (LD50).

| SMILES | pesticidal activity rating, Housefly [1] | pesticidal activity rating, Mite [2] | pesticidal activity rating, Armyworm [3] | pesticidal activity rating, Aphid [4] | pesticidal activity rating, Bean beetle [5] | LD50 [6] [mg/kg] |
| --- | --- | --- | --- | --- | --- | --- |
| CN(SC(Cl)(Cl)Cl)C(=O)ON=C1SCCSC1(C)C | B | A | A | A | A | 7.07 |
| CNC(=O)ON=C1CSCS1 [drawing 5 --NHCH3, reference compound] | A | A | A | A | A | 13 |
| CNC(=O)ON=C1CSC(C)(C)S1 [drawing 6 --NHCH3, reference compound] | A | A | B | A | A | – |
| CNC(=O)ON=C1C[S+]([O-])CCS1 (centres unmarked) [drawing 10 --NHCH3, reference compound] | A | A | A | C | A | 12.3 |
| CN(SC(Cl)(Cl)Cl)C(=O)ON=C1CSCS1 [4-[(N-METHYL-N-TRICHLOROMETHANESULFENYL)-CARBAMOYLOXIMINO]-1,3-DITHIOLANE] | A | A | A | A | A | 75 |
| CNC(=O)ON=C1SCCSC1(C)C [drawing 7 --NHCH3, reference compound] | A | A | A | A | A | 0.3 |
| CN(SC(F)(F)F)C(=O)ON=C1CSCCS1 [2-O-[(N-METHYL-N-TRIFLUOROMETHANESULFENYL)-CARBAMOYLOXIMINO]-1,4-DITHIANE] | A | A | A | A | A | – |
| CN(SC(Cl)(Cl)Cl)C(=O)ON=C1C[S+]([O-])CCS1 (centres unmarked) [2-O-[(N-METHYL-N-TRICHLOROMETHANESULFENYL) CARBAMOYLOXIMINO]-1,4-DITHIANE-4-OXIDE] | A | A | A | A | A | 28.3 |
| CCCC1SCCSC1=NOC(=O)N(C)SC(Cl)(Cl)Cl (centres unmarked) | A | C | C | B | A | – |
| CNC(=O)ON=C1SCCSC1C (centres unmarked) [drawing 11 --NHCH3, reference compound] | A | A | A | A | A | – |
| CC1SCCSC1=NOC(=O)N(C)SC(Cl)(Cl)Cl (centres unmarked) | A | A | A | A | A | – |
| CN(SC(Cl)(Cl)Cl)C(=O)ON=C1CSC(C)(C)S1 | A | A | C | A | A | – |
| CCCC1SCCSC1=NOC(=O)NC (centres unmarked) [drawing 9 --NHCH3, reference compound] | A | C | C | A | A | – |
